Measured values as given in patent publication US11846630B2, “Coordinately-ordered single cells with individual identities for high-throughput assay” (Northeastern University, priority 2019, dated 2023).

Assays:
HeLa cells = experiment: ROS assay (CellROX Orange) on coordinated single cell pattern; conditions: 1 μM doxorubicin for 6 hours
OT-1 cells = experiment: Microwell ELISA immunoassay of interferon-γ secreted by peptide-stimulated OT-1 cells; format: cell-based; conditions: OVA peptide concentration 0.5, 1, 2, 4, 8 μg/mL; FIG. 12, panel C
Description: Surface of the microwells can be chemically modified with capture agents, such as antibodies, to detect cytokines secreted by T cells during the T cell-cancer cells interaction. […] The cytokine detection is based on ELISA sandwich structure and quantified based on the fluorescence intensity of Avidin Texas red. Due to the existence of BSA on the top layer, the majority of antibodies were only absorbed on the inner surface of the microwells (bottom and inside wall of microwell), which enhanced capturing signals and reduced background. The location of the capture antibody after BSA saturation was indicated using Rhodamine-BSA and FITC-Antibody and shown in FIG. 11, panel B, in which BSA only covered the top layer of microwell and the green fluorescent capture antibody was mainly present inside the microwells after BSA saturation, enhancing the signals from the microwells. The fluorescence images of interferon-γ at two concentrations are shown in FIG. 11, panel C, and the standard curve of fluorescence versus interferon-γ concentration is presented in FIG. 11, panel D. According to the standard curve, imaged-based ELISA using the microwells detected a wide range of the cytokine concentrations from 0.1 ng/mL to 5 ng/mL, and the concentrations determined based on fluorescence intensity ranged from 0.8×10^5 to 2.7×10^5. […]

Compound	ROS orange signal intensity after subsequent X-ray exposure (HeLa cells; then X-ray 10.8 Gy, compared with doxorubicin alone)	ROS orange signal (HeLa cells; identical cell analysis, FIG. 3)	intensity of the interferon-γ fluorescence (OT-1 cells)
COc1cccc2c1C(=O)c1c(O)c3c(c(O)c1C2=O)C[C@@](O)(C(=O)CO)C[C@@H]3O[C@H]1C[C@H](N)[C@H](O)[C@H](C)O1 [doxorubicin]	much higher level of damage than that of doxorubicin alone	increases	
SINFEKL [OVA peptide, OVA peptide (SINFEKL) used to stimulate OT-1 cells to secrete cytokines]			increased
